Reference: patent US8557272B2, “Device for local and/or regional delivery employing liquid formulations of therapeutic agents” (Cordis Corporation, priority 2004, dated 2013)

Legend:
[1] = MVP IVUS substudy after balloon angioplasty; format: in vivo, human
Description: Serial intravascular ultrasound (IVUS) examinations have been performed in a consecutive series of patients involved in the MVP trial. By providing tomographic views of coronary arteries with high resolution, IVUS allows quantitative assessment of changes in arterial lumen and wall dimensions. We were therefore able in this study to determine the pathophysiology of coronary restenosis after balloon angioplasty in patients systematically undergoing follow-up IVUS examination and determine the effect of probucol on tissue hyperplasia and vascular remodeling after coronary angioplasty. The present invention concerns the IVUS substudy from the MVP restenosis trial. […] Briefly, patients referred for elective coronary angioplasty were evaluated at least 30 days prior to their scheduled procedure. […] The sequence of contrast injections with the exact degree of angulation was recorded and used for every angiogram. Coronary arteriograms (pre-, post-procedure, and final follow-up) were analyzed together using the Coronary Measurement System (CMS), as previously reported. […] Patients were readmitted for follow-up coronary angiography at five to seven months. […] IVUS imaging was monitored by an experienced cardiologist, but the angioplasty operator was blinded to ultrasound results to avoid altering standard balloon angioplasty practice. […]

[2] = MVP randomized clinical trial, angiographic and clinical outcome; format: in vivo, human; settings: probucol given alone, compared to placebo
Description: It was not possible to determine with angiography alone whether probucol acted via inhibition of tissue hyperplasia or improvement in vascular remodeling. […] In addition, the invention enables the skilled practitioner to use probucol in conjunction with other percutaneous coronary interventions such as stenting if it is deemed appropriate.
The present invention concerns the IVUS substudy from the MVP restenosis trial. MVP was a double-blind placebo-controlled randomized clinical trial with four study groups. The protocol was approved by the Montreal Heart Institute institutional review board. The MVP study design, inclusion and exclusion criteria have been previously described (N Engl J Med 1997; 365-372). Briefly, patients referred for elective coronary angioplasty were evaluated at least 30 days prior to their scheduled procedure. Eligible patients were asked to provide written informed consent. Patients were eligible if they were scheduled to undergo standard balloon angioplasty on at least one native coronary artery and had at least one de novo target lesion with luminal narrowing of fifty percent or more by caliper measurements.
Beginning thirty days prior to scheduled angioplasty, patients were randomly assigned to receive either probucol alone, multivitamins alone, the combination of probucol and multivitamins, or placebo. Probucol 500 mg or matched placebo was administered twice daily. The multivitamin complex, consisting of vitamin E 700 IU, vitamin C 500 mg and beta-carotene 30,000 IU, or matched placebo was also administered in one tablet twice daily. […] The sequence of contrast injections with the exact degree of angulation was recorded and used for every angiogram. Coronary arteriograms (pre-, post-procedure, and final follow-up) were analyzed together using the Coronary Measurement System (CMS), as previously reported. […] Patients were readmitted for follow-up coronary angiography at five to seven months. […]

LDL = LDL peroxidation lag phase ex vivo (diene conjugates after copper ions); design: species or system human; settings: treatment for one month; preliminary results
Description: Dietary intervention and smoking habits were similar in all groups. Probucol may simply be a more powerful antioxidant than the combination of vitamins. To this regard, preliminary results from the continuous spectrophotometric monitoring of diene conjugates in LDL after the addition of copper ions to the isolated lipoprotein ex vivo (Free Radic Res Commun 1989; 6:67-75) of MVP patients are noteworthy.

CC(C)(Sc1cc(C(C)(C)C)c(O)c(C(C)(C)C)c1)Sc1cc(C(C)(C)C)c(O)c(C(C)(C)C)c1 [probucol, 4,4′-([1-methylethylidene)bis(thio)]bis-[2,6-bis(1,1-dimethylethyl)phenol]]
reduction in lumen loss assessed by IVUS ([1]; compared to non-probucol treated patients): 0.79 mm^2
reduction in lumen loss assessed by IVUS ([1]; probucol given alone compared to the placebo group only): 1.06 mm^2
reduction of angiographic lumen loss [2]: sixty-eight percent
reduction of restenosis rate per segment [2]: forty-seven percent
reduction of the need for repeat angioplasty at 6 month [2]: fifty-eight percent
protection against LDL oxidation (lag phase for LDL peroxidation) (LDL): significantly greater protection against LDL oxidation than vitamins alone or the combination of probucol and vitamins
